Results published in ChEMBL document CHEMBL3046568, “Synthesis, antimicrobial and DNA cleavage studies of some 4-aryloxymethylcoumarins obtained by reaction of 4-bromomethylcoumarins with bidentate nucleophiles” (2012).
Values after ≈ are worked out from the molar mass of the structure shown. Active and inactive are the calls of the source. No cut-off for these calls is given here.

Legend:
[1] = tested on: Aspergillus niger; assay: Induction of Aspergillus niger DNA cleavage at 50 ug after 2 hr by agarose gel electrophoresis
[2] = tested on: Aspergillus niger; assay: Induction of Aspergillus niger DNA cleavage at 25 ug after 2 hr by agarose gel electrophoresis
[3] = tested on: Aspergillus fumigatus; assay: Antifungal activity against Aspergillus fumigatus after 3 to 4 days by serial dilution method; assay type: functional; conditions: for MIC: Aspergillus fumigatus
[4] = tested on: Fusarium oxysporum; assay: Antifungal activity against Fusarium oxysporum after 3 to 4 days by serial dilution method; assay type: functional; conditions: for MIC: Fusarium oxysporum
[5] = tested on: Penicillium chrysogenum; assay: Antifungal activity against Penicillium chrysogenum after 3 to 4 days by serial dilution method; assay type: functional; conditions: for MIC: Penicillium chrysogenum
[6] = tested on: Mucor fuscus; assay: Antifungal activity against Mucor fuscus after 3 to 4 days by serial dilution method; assay type: functional; conditions: for MIC: Mucor fuscus
[7] = tested on: Bacillus subtilis; assay: Antibacterial activity against Bacillus subtilis MTCC 297 after 24 hr by disk diffusion method; assay type: functional; conditions: for MIC: Bacillus subtilis, MTCC 297, 24 h
[8] = tested on: Escherichia coli; assay: Antibacterial activity against Escherichia coli MTCC 1089 after 24 hr by disk diffusion method; assay type: functional; conditions: for MIC: Escherichia coli, MTCC 1089, 24 h
[9] = tested on: Staphylococcus aureus; assay: Induction of Staphylococcus aureus MTCC 3160 DNA cleavage at 50 ug after 2 hr by agarose gel electrophoresis
[10] = tested on: Staphylococcus aureus; assay: Antibacterial activity against Staphylococcus aureus MTCC 3160 after 24 hr by disk diffusion method; assay type: functional; conditions: for MIC: Staphylococcus aureus, MTCC 3160, 24 h
[11] = tested on: Enterococcus faecalis; assay: Antibacterial activity against Enterococcus faecalis MTCC 3382 after 24 hr by disk diffusion method; assay type: functional; conditions: for MIC: Enterococcus faecalis, MTCC 3382, 24 h
[12] = tested on: Aspergillus niger; assay: Antifungal activity against Aspergillus niger after 3 to 4 days by serial dilution method; assay type: functional; conditions: for MIC: Aspergillus niger
[13] = tested on: Klebsiella pneumoniae; assay: Antibacterial activity against Klebsiella pneumoniae MTCC 3384 after 24 hr by disk diffusion method; assay type: functional; conditions: for MIC: Klebsiella pneumoniae, MTCC 3384, 24 h
[14] = tested on: Escherichia coli; assay: Induction of Escherichia coli MTCC 1089 DNA cleavage at 50 ug after 2 hr by agarose gel electrophoresis
[15] = tested on: Pseudomonas aeruginosa; assay: Antibacterial activity against Pseudomonas aeruginosa MTCC 1034 after 24 hr by disk diffusion method; assay type: functional; conditions: for MIC: Pseudomonas aeruginosa, MTCC 1034, 24 h
[16] = tested on: Staphylococcus aureus; assay: Induction of Staphylococcus aureus MTCC 3160 DNA cleavage at 25 ug after 2 hr by agarose gel electrophoresis
[17] = tested on: Candida albicans; assay: Antifungal activity against Candida albicans after 3 to 4 days by serial dilution method; assay type: functional; conditions: for MIC: Candida albicans
[18] = tested on: Escherichia coli; assay: Induction of Escherichia coli MTCC 1089 DNA cleavage at 25 ug after 2 hr by agarose gel electrophoresis

Structure (SMILES) | Activity [1] | inhibition zone (IZ) [3] | MIC [3] | inhibition zone (IZ) [4] | inhibition zone (IZ) [5] | MIC [5] | inhibition zone (IZ) [6] | MIC [6] | inhibition zone (IZ) [7] | MIC [7] | inhibition zone (IZ) [8] | MIC [8] | Activity [9] | inhibition zone (IZ) [10] | MIC [10] | inhibition zone (IZ) [11] | MIC [11] | inhibition zone (IZ) [12] | MIC [12] | inhibition zone (IZ) [13] | further results
O=c1cc(COc2cccc(O)c2)c2cc(Cl)ccc2o1 | Active | 21 mm | 6.25 µg/mL (≈ 20.6 µM) | 17 mm | 22 mm | 6.25 µg/mL (≈ 20.6 µM) | 21 mm | 6.25 µg/mL (≈ 20.6 µM) | 20 mm | 6.25 µg/mL (≈ 20.6 µM) | 17 mm | 12.5 µg/mL (≈ 41.3 µM) | Active | 21 mm | 6.25 µg/mL (≈ 20.6 µM) | 22 mm | 6.25 µg/mL (≈ 20.6 µM) | 24 mm | 6.25 µg/mL (≈ 20.6 µM) | 19 mm | Activity [2]: Active; MIC [4]: 12.5 µg/mL (≈ 41.3 µM); MIC [13]: 6.25 µg/mL (≈ 20.6 µM); Activity [14]: Active; inhibition zone (IZ) [15]: 24 mm; MIC [15]: 6.25 µg/mL (≈ 20.6 µM); Activity [16]: Active; inhibition zone (IZ) [17]: 20 mm; MIC [17]: 6.25 µg/mL (≈ 20.6 µM)
COc1ccc2oc(=O)cc(COc3cccc(NC(C)=O)c3)c2c1 | Active | 21 mm | 6.25 µg/mL (≈ 18.4 µM) | 16 mm | 20 mm | 6.25 µg/mL (≈ 18.4 µM) | 21 mm | 6.25 µg/mL (≈ 18.4 µM) | 19 mm | 6.25 µg/mL (≈ 18.4 µM) | 17 mm | 12.5 µg/mL (≈ 36.8 µM) | Active | 19 mm | 6.25 µg/mL (≈ 18.4 µM) | 20 mm | 6.25 µg/mL (≈ 18.4 µM) | 21 mm | 6.25 µg/mL (≈ 18.4 µM) | 21 mm | MIC [4]: 12.5 µg/mL (≈ 36.8 µM); Activity [18]: Active; MIC [13]: 6.25 µg/mL (≈ 18.4 µM); Activity [14]: Active; inhibition zone (IZ) [15]: 25 mm; MIC [15]: 6.25 µg/mL (≈ 18.4 µM); inhibition zone (IZ) [17]: 19 mm; MIC [17]: 6.25 µg/mL (≈ 18.4 µM)
CCN(CC)c1cccc(OCc2cc(=O)oc3ccc(OC)cc23)c1 | Active | 19 mm | 6.25 µg/mL (≈ 17.7 µM) | 15 mm | 23 mm | 6.25 µg/mL (≈ 17.7 µM) | 19 mm | 6.25 µg/mL (≈ 17.7 µM) | 18 mm | 6.25 µg/mL (≈ 17.7 µM) | 17 mm | 12.5 µg/mL (≈ 35.4 µM) | Active | 20 mm | 6.25 µg/mL (≈ 17.7 µM) | 20 mm | 6.25 µg/mL (≈ 17.7 µM) | 20 mm | 6.25 µg/mL (≈ 17.7 µM) | 20 mm | Activity [18]: Active; MIC [13]: 6.25 µg/mL (≈ 17.7 µM); Activity [14]: Active; inhibition zone (IZ) [15]: 25 mm; MIC [15]: 6.25 µg/mL (≈ 17.7 µM); inhibition zone (IZ) [17]: 17 mm; MIC [17]: 6.25 µg/mL (≈ 17.7 µM)
COc1ccc2oc(=O)cc(COc3cccc(OCc4cc(=O)oc5ccc(OC)cc45)c3)c2c1 | Active | 18 mm | 12.5 µg/mL (≈ 25.7 µM) | 15 mm | 17 mm | 12.5 µg/mL (≈ 25.7 µM) | 20 mm | 6.25 µg/mL (≈ 12.8 µM) | 18 mm | 6.25 µg/mL (≈ 12.8 µM) | 17 mm | 12.5 µg/mL (≈ 25.7 µM) | Active | 19 mm | 6.25 µg/mL (≈ 12.8 µM) | 21 mm | 6.25 µg/mL (≈ 12.8 µM) | 18 mm | 12.5 µg/mL (≈ 25.7 µM) | 20 mm | MIC [4]: 12.5 µg/mL (≈ 25.7 µM); Activity [18]: Active; MIC [13]: 6.25 µg/mL (≈ 12.8 µM); Activity [14]: Active; inhibition zone (IZ) [15]: 24 mm; MIC [15]: 6.25 µg/mL (≈ 12.8 µM); inhibition zone (IZ) [17]: 17 mm; MIC [17]: 6.25 µg/mL (≈ 12.8 µM)
